These results are taken from patent publication US20240247029A1, “INTERLEUKIN-1 RECEPTOR MODULATORS AND USES THEREOF” (VALORISATION HSJ, LIMITED PARTNERSHIP, priority 2020, published 2024).

Test [1] has as its system IL-1β-induced NF-κB signaling in HEK-Blue IL-33/IL-1β cells. Briefly: NF-κB QUANTI-Blue assay. The following applies: peptide 10^−6 M, 30 min pretreatment, IL-1β 100 ng/ml. It is filed as cell-based. As to the method:
FIG. 3 is a graph showing the effects of peptides 1 and 2 on IL-1β-induced NF-κB signaling in HEK-Blue cells as quantified in the QUANTI-blue assay. After pre-incubation with peptide or vehicle, HEK-Blue cells were stimulated with IL-1β for 24 h, and secreted alkaline phosphatase activity was spectroscopically detected as a reporter product from the transcription of the NF-κB gene. Data shown represents the average of 2 experiments (each with n=4 per treatment group): ****p<0.0001 compared to group treated only with IL-1β.
HEK-Blue IL-33/IL-1β cells (InvivoGen) were respectively pretreated with peptides 1 and 2 (10^−6 M), or Kineret (1.0 mg/mL) for 30 min, followed by treatment with a constant concentration of […] (100 ng/ml), and incubation at 37° C. for 4 h. Levels of secreted alkaline phosphatase in cell culture supernatant were determined using the QUANTI-Blue assay, according to the manufacturer's instructions (InvivoGen). Alkaline phosphatase activity was assessed by measuring the optical density (OD) at 620-655 nm with an EnVision Multilabel micro plate reader (PerkinElmer, Waltham, MA). Data are representative of 3 experiments (each with n=4 per treatment group).

Another test concerns timed-pregnant CD-1 mice. Briefly: LPS-induced preterm birth model in mice. In kind it is in vivo, mouse. The following applies: 2 mg/kg/day subcutaneous, LPS 10 μg intraperitoneal on G16.5; delivery before G18.5; LPS alone ˜80%. As to the method: FIG. 6 is a graph showing the effects of peptides 1 and 2 on prevention of PTB. In brief, pregnant dams on day 16.5 of gestation (G16.5) were subcutaneously pretreated with peptides 1 and 2 (2 mg/kg/day subcutaneous injections) or vehicle, followed by LPS (10 μg intraperitoneal injection), and observed for delivery of pups. A dam was considered as delivering preterm if at least one pup was delivered before G18.5. n=4-5 dams per treatment group.
Timed-pregnant CD-1 mice at 16.5 days of gestation (G16.5) were anesthetized with 2% isoflurane and received an intraperitoneal injection of lipopolysaccharide (LPS, n=4 per group, a single dose of 10 ug) (Nadeau-Vallée et al., 2015; Kakinuma et al., 1997). A dosage of 2 mg/kg/day of peptides 1 and 2 or vehicle was respectively injected subcutaneously in the neck, every 12h until delivery. On G16.5, a dose of 1 mg/kg was injected 30 min before stimulation with LPS (to allow distribution of drugs to target tissues) and 1 mg/kg was injected 12h after stimulation (n=4 each treatment). Mice delivery was assessed every hour until term (G19-G19.5). A mouse was considered as delivering prematurely if the first pup was delivered earlier than G18.5. Data was analyzed using Prism 7 (GraphPad Software, San Diego, CA, USA) with one-way ANOVA and Dunnett's test for multiple comparisons. Outliers were detected using Grubb's test. Results were treated as significant when p was <0.05 and expressed as mean+SEM.
From the results of the in vitro screens, a subset of six (3R,4S)-β-substituted-Agl^3 peptides (e.g., 2c, 2d, 2f, 2l, 2n, 2q) were selected for examination in vivo in a CD-1 mouse model of preterm birth (PTB), and a Sprague Dawley rat model of oxygen-induced retinopathy (OIR). In the PTB model, timed-pregnant CD-1 dams were pre-treated with peptides 1 or 2, or PBS vehicle, and then injected with LPS on day 16.5 of gestation (G16.5). A bacterial cell wall component that contains PAMPs, LPS is known to reliably induce labor via pro-inflammatory pathways implicating IL-1 (Hirsch and Wang 2005). The CD-1 mice have a gestation of 19.2 days (Goupil et al. 2010). Dams that delivered at least one pup before G18.5 were considered to have given birth prematurely. In the absence of peptide, LPS alone induced premature labor in ˜80% of treated mice (FIG. 6). Peptide 1 and triazoles 2 l and 2q, all reduced the PTB rate to ˜20%.

The conditions of test [2]: Quiniou et al. 2008; cited from earlier work.
The subject of a further test is Sprague Dawley rat pups. Briefly: Oxygen-induced retinopathy (OIR) model. The conditions noted are these: 2 mg/kg/day intraperitoneal twice daily, 80% oxygen P5 to P10; for extent of vaso-obliteration (percentage of total retinal area): vehicle ˜30%. It is filed as in vivo. From the text: Experiments in the oxygen-induced retinopathy rodent model were preformed according to the method described previously (Geranurimi et al. 2019), and summarized below.
Animals. Two-day-old (P2) Sprague Dawley rat pups and their mothers were ordered from Charles River (Raleigh, SC, USA) and acclimatized for 3 days in standard conditions. All procedures and protocols involving the use of the rats were approved by the Animal Care Committee of the research center of Hopital Maisonneuve-Rosemont and are in accordance with the Statement for the Use of Animals in Ophthalmic and Vision Research approved by the Association for Research in Vision and Ophthalmology, and guidelines established by the Canadian Council on Animal Care.
Oxygen-Induced Retinopathy in Sprague Dawley Rats. The 80% oxygen model of retinopathy was conducted as previously described (Geranurimi et al. 2019). Briefly, litters of P5 pups and their mothers were kept in a controlled 80% oxygen environment until P10. The pups were respectively injected intraperitoneally twice daily with PBS vehicle (20 μL per injection), peptide 1 or derivatives 2 (titrated to a daily dose of 2 mg/kg/day). Control litters were kept under normal air atmosphere and standard conditions. On P10, pups were euthanized by decapitation under 2% isoflurane anesthesia. Eyes were enucleated and fixed in 4% paraformaldehyde, then stored at 4° C. in phosphate-buffered saline (PBS) until further processing.
Retinal Flatmount and Immunohistochemistry. The fixed eyes were dissected, and the obtained retinas were incubated with antibodies and mounted onto slides as previously described in (Geranurimi et al. 2019). Briefly, the cornea and lens were removed from the eyes, and the retina gently removed from the underlying sclera-choroid-retinal pigmented epithelium (RPE) complex. Retinas were treated for 1h with blocking solution [1% bovine serum albumin (BSA), 1% normal goat serum, 0.1% Triton X-100 and 0.05% Tween-20 in PBS], and then incubated overnight with lectin and Iba-1 primary antibody, followed by Alexa-594-conjugated secondary antibody for 2 h. Retinas were then mounted onto microscope slides under coverslips with anti-fade mounting medium.
Microscopy. Retinal flatmounts were imaged using the Zeiss Axiolmager Z2 and the MosaiX feature of the AxioVision software as previously described (Geranurimi et al. 2019). Representative images after Iba-1 staining were taken using a laser scanning confocal microscope (Olympus IX81 with Fluoview FV1000 Scanhead) using the Fluoview Software at 30× magnification.
Quantification and Data Analysis. The FIJI software was used to quantify the area of vaso-obliteration in each retina, expressed as a percentage of the area of the whole retina. The number of Iba-1-positive cells was counted using the cell counter plug-in in the FIJI software, and the average of cell counts in 4 fields per retina was calculated. Data was analyzed using Prism 7 with one-way ANOVA and the Dunnett's test for multiple comparisons. Results were treated as significant when p was less than 0.05 and expressed as mean+SEM.

Another test relates to human thymocyte. The conditions noted are these: in vitro (Jamieson et al. 2009); cited from earlier work.
Test [3] deals with IL-1β-induced phosphorylation of p38. As to the kind of experiment: IL-1β-induced p38 phosphorylation, Western blot, RAW Blue cells. In kind it is cell-based. The conditions noted are these: peptide 10^−6 M 30 min, then IL-1β 15 min. The method, then: (§1) FIGS. 5A-C are graphs showing the effects of peptides 1 and 2 on IL-1β-induced phosphorylation of p38 (FIG. 5A), JNK (FIG. 5B), and ROCK2 (FIG. 5C). Graphical representations of band density analysis of Western Blots are shown as fold activation compared to control. RAW Blue cells were pretreated with peptides 1 and 2 (10^−6 M), Kineret (1 mg/mL), or vehicle for 30 min and then stimulated with IL-1β for 15 min. Results shown are the average of 3 independent experiments: *p<0.05, ** p<0.01, ***p<0.001 compared to group treated only with IL-1β. Treatment groups that are not labeled with asterisks are statistically non-significant compared to group treated only with IL-1β.

The test system of test [4] is IL-1β-induced phosphorylation of JNK. As to the kind of experiment: IL-1β-induced JNK phosphorylation, Western blot, RAW Blue cells. The conditions noted are these: peptide 10^−6 M 30 min, then IL-1β 15 min. In kind it is cell-based. As to the method: as §1
Test [5] relates to IL-1β-induced phosphorylation of ROCK2. As to the kind of experiment: IL-1β-induced ROCK2 phosphorylation, Western blot, RAW Blue cells. In kind it is cell-based. The following applies: peptide 10^−6 M 30 min, then IL-1β 15 min. As to the method: as §1
On the technique in general: In western blotting, separated proteins are transferred to a membrane and probed.

Regarding “H-D-Arg-D-Tyr-D-Thr-D-Val-D-Glu-D-Leu-D-Ala-NH2 [compound 1, reference compound]”, in test [1], the “effect on IL-1β-induced NF-κB signaling (secreted alkaline phosphatase)” value is “no effect”. The PTB rate in the test with timed-pregnant CD-1 mice is around 20%. The “in vivo effects in models of hyperthermia and inflammatory bowel disease” value in test [2] was “robust in vivo effects”. Moreover, in the test on Sprague Dawley rat pups, the “retinal microglial morphology/activation (Iba-1 staining)” value is “ramified and branched microglia”; the “extent of vaso-obliteration (percentage of total retinal area)” value is recorded as around 20%. The “IL-1β-induced human thymocyte cell proliferation” value in the test with human thymocyte was “blocked”.

As to “[(3R,4S)-4-(4′-Phenyltriazolyl)Agl^3]-1 [2l]”, the “IL-1β-induced p38 phosphorylation” value in test [3] is listed as “inhibiting”. Further, in test [4], the “IL-1β-induced activation (phosphorylation) of JNK” value is “inhibited”. The “IL-1β-induced ROCK2 phosphorylation” value in test [5] was “inhibitory activity”. For the same substance, in the test with timed-pregnant CD-1 mice, the PTB rate is around 20%. Also, in the test on Sprague Dawley rat pups, the “protective effect against vaso-obliteration” value is recorded as “tendencies to have a stronger protective effect than peptide 1”; the “retinal microglial morphology/activation (Iba-1 staining)” value is “ramified and branched microglia”; the “extent of vaso-obliteration (percentage of total retinal area)” value is recorded as around 20%.
